According to patent US20080139664A1, “ANTI-GLYCATION AGENTS FOR PREVENTING AGE-, DIABETES-, AND SMOKING-RELATED COMPLICATIONS” (NATIONAL RESEARCH COUNCIL OF CANADA, priority 2001, published 2008):
Counter-ions that a name gives are not always drawn. Like-named read-outs stand apart in the source and are kept apart here.

How the values were obtained:
[1] = tested on: bovine serum albumin (BSA); assay: Maillard fluorescence-based assay of AGEs formation, IC50 determination (BSA + D-ribose); conditions: for maximum percentage of the inhibition: Maillard fluorescence, listed if significantly lower than 100%
Description: (§1) During the glycation reaction between proteins and reducing sugars, a specific fluorescence with excitation and emission wavelength of 370 nm and 440 nm, respectively, is observed. […] The assay was based on the progressive development of the characteristic Maillard fluorescence (370 nm Ex and 440 nm Em) during the progress of the glycation reaction.
(§2) The final assay volume was 200 μl and each assay well contained 0.075 mM BSA, and 50 mM D-ribose. Compounds were assayed at 3 different concentration levels (0.003, 0.03, and 0.3 mg/mL) to determine the effect of concentration on inhibition. Samples were incubated for 5 days.
(§3) The Maillard fluorescence was directly measured from the reaction solution, except for the anti-glycants that quenched the Maillard fluorescence, which were analyzed by the earlier-described HPLC method.
(§4) Solutions were incubated in microtitre plates (96 wells) at 37° C. for 5 days in a closed system.
(§5) After one hour incubation at 37° C., fluorescence readings were taken.
(§6) The IC50 values of the compounds that quenched the fluorescence of the glycated BSA were analyzed by on-line monitoring of the fluorescence of the glycated BSA separated from the fluorescence quenching assay compound by RP-HPLC. The elution profile was monitored by UV-diode array and by fluorescence (λex=370 nm, λem=440 nm). […] The incubation conditions were the same as above.

[2] = tested on: lysozyme; assay: ESI-MS of lysozyme glycoforms after incubation with D-ribose; conditions: 37° C., 5 days; for Peak area as % of total area of all glycoforms, 14,569: lysozyme + 2D-ribose − 2H2O (14,569 Da); for Peak area as % of total area of all glycoforms, 14,551: lysozyme + 2D-ribose − 3H2O (14,551 Da); for Peak area as % of total area of all glycoforms, 14,533: lysozyme + 2D-ribose − 5H2O (14,533 Da); for Peak area as % of total area of all glycoforms, 14,515: lysozyme + 2D-ribose − 6H2O (14,515 Da); for Peak area as % of total area of all glycoforms, 14,419: lysozyme + D-ribose − 2H2O (14,419 Da); for Peak area as % of total area of all glycoforms, 14,401: lysozyme + D-ribose − 3H2O (14,401 Da); for Peak area as % of total area of all glycoforms, 14,437: lysozyme + D-ribose − H2O (14,437 Da); for Peak area as % of total area of all glycoforms, 14,496: lysozyme + D-ribose − H2O with one carboxymethylated Lys residue (14,496 Da); for Peak area as % of total area of all glycoforms, 14,364: lysozyme with one carboxymethylated Lys residue (14,364 Da); for Peak area as % of total area of all glycoforms, 14,305: unmodified lysozyme (14,305 Da);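 for all read-outs here: lysozyme incubated with D-ribose, with or without anti-glycation agents, then separated by reversed-phase HPLC and analysed by electrospray mass spectrometry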
Description: The effect of anti-glycation agents on the accumulation of glycated forms (glycoforms) of protein was evaluated by using electrospray mass spectrometry (ESI-MS). As the molecular mass of BSA was too large to monitor the small mass changes of its glycoforms, lysozyme was incubated with D-ribose and anti-glycants. Lysozyme and its glycoforms were isolated by RP-HPLC and analyzed by mass spectrometry.
Samples of lysozyme (0.756 mM; 4.54 mM of Lys residues) and D-ribose (50 mM) were incubated in the presence and absence of the selected anti-glycation agents at 37° C. for 5 days and subjected to electrospray mass spectrometry (ESI-MS) in order to characterize the protein intermediates as well as carboxymethylated lysozyme. Prior to MS measurements, the proteins were isolated by reversed phase-HPLC and were semi-dried by freeze drying.

[3] = tested on: bovine serum albumin (BSA)
Description: as §1, §2, §3, §4, §5, §6

[4] = inhibition of Maillard fluorescence development, 0.075 mM BSA, 50 mM D-ribose, 37° C., 5 days

O=[N+]([O-])c1cc(I)c(O)c(I)c1 [2,6-Diiodo-4-nitrophenol]
IC50 [1, 4]: 1300 µM

COC1=C[C@@H]2[C@@H]3Cc4ccc(OC)c(O)c4[C@]2(CCN3C)CC1=O [Sinomenine]
IC50 [1, 4]: > 4000 µM

O=c1c2ccccc2[se]n1-c1ccccc1 [Ebselen]
IC50 [1, 4]: > 4000 µM

COc1ccc(O)c(C(C)(C)C)c1 [BHA]
IC50 [1, 4]: > 4000 µM

Nc1ncc([N+](=O)[O-])cn1 [2-Amino-5-nitropyrimidine]
Peak area as % of total area of all glycoforms, 14,569 [2]: 4.7%
Peak area as % of total area of all glycoforms, 14,551 [2]: 3.8%
Peak area as % of total area of all glycoforms, 14,533 [2]: 2.0%
Peak area as % of total area of all glycoforms, 14,515 [2]: 0.9%
Peak area as % of total area of all glycoforms, 14,419 [2]: 7.7%
Peak area as % of total area of all glycoforms, 14,401 [2]: 0.0%
Peak area as % of total area of all glycoforms, 14,437 [2]: 23.0%
Peak area as % of total area of all glycoforms, 14,496 [2]: 0.0%
Peak area as % of total area of all glycoforms, 14,364 [2]: 3.6%
Peak area as % of total area of all glycoforms, 14,305 [2]: 52.9%
IC50 [1, 4]: 810 µM

O=c1c(-c2ccc(O)cc2)coc2cc(O)cc(O)c12 [Genistein]
IC50 [1, 4]: 450 µM

Oc1ccc(Cl)c2cccnc12 [Cloxiquine]
IC50 [1, 4]: 440 µM

O=c1cc(-c2cccc(O)c2)oc2cc(O)c(O)cc12 [6,7,3′-Trihydroxyflavone]
IC50 [1, 4]: 940 µM

CC(CCc1ccccc1)NCC(=O)c1ccc(O)c(O)c1 (stereo not drawn) [α-(1-Methyl-3-phenyl-propylamino)-3,4-dihydroxyacetophenone hydrochloride]
IC50 [1, 4]: 890 µM

O=[N+]([O-])c1ncc[nH]1 [2-Nitroimidazole]
IC50 [1, 4]: > 4000 µM

O=c1cc(-c2ccc(O)c(O)c2)oc2ccccc12 [3′.4′-Dihydroxyflavone]
IC50 [1, 4]: 2600 µM

NCCc1cc(O)c(O)cc1O [6-Hydroxydopamine]
maximum percentage of the inhibition [1]: 65%)
IC50 [1, 4]: 95 µM

Cn1c([N+](=O)[O-])cnc1COC(N)=O [Ronidazole]
IC50 [1, 4]: 950 µM

NC(=O)N/N=C/c1ccc([N+](=O)[O-])o1 [Nitrofurazone]
Peak area as % of total area of all glycoforms, 14,569 [2]: 4.2%
Peak area as % of total area of all glycoforms, 14,551 [2]: 2.8%
Peak area as % of total area of all glycoforms, 14,533 [2]: 2.4%
Peak area as % of total area of all glycoforms, 14,515 [2]: 1.1%
Peak area as % of total area of all glycoforms, 14,419 [2]: 5.8%
Peak area as % of total area of all glycoforms, 14,401 [2]: 0.0%
Peak area as % of total area of all glycoforms, 14,437 [2]: 21.4%
Peak area as % of total area of all glycoforms, 14,496 [2]: 0.0%
Peak area as % of total area of all glycoforms, 14,364 [2]: 1.6%
Peak area as % of total area of all glycoforms, 14,305 [2]: 60.8%
maximum percentage of the inhibition [1]: 50%)
IC50 [1, 4]: 46 µM

CN1CC(O)C2=C/C(=N/NC(N)=O)C(=O)C=C21 (stereo not drawn) [Carbazochrome]
IC50 [1, 4]: 3500 µM

COC(CNC(C)C)c1ccc(O)c(O)c1 (stereo not drawn) [3,4-Dihydroxy-1-[α-isopropylamino-β-methoxy)ethyl]benzene]
IC50 [1, 4]: 78 µM

Cc1c(C(N)=O)cc([N+](=O)[O-])cc1[N+](=O)[O-] [Dinitolmide]
Peak area as % of total area of all glycoforms, 14,569 [2]: 4.9%
Peak area as % of total area of all glycoforms, 14,551 [2]: 3.6%
Peak area as % of total area of all glycoforms, 14,533 [2]: 2.6%
Peak area as % of total area of all glycoforms, 14,515 [2]: 1.3%
Peak area as % of total area of all glycoforms, 14,419 [2]: 7.4%
Peak area as % of total area of all glycoforms, 14,401 [2]: 0.0%
Peak area as % of total area of all glycoforms, 14,437 [2]: 22.6%
Peak area as % of total area of all glycoforms, 14,496 [2]: 0.0%
Peak area as % of total area of all glycoforms, 14,364 [2]: 3.0%
Peak area as % of total area of all glycoforms, 14,305 [2]: 51.7%
IC50 [3]: 340 µM

O=[N+]([O-])c1ccc(O)cc1 [p-Nitrophenol]
IC50 [1, 4]: > 4000 µM

O=c1cc(-c2ccc(O)c(O)c2)oc2ccc(O)cc12 [6,3′,4′-Trihydroxyflavone]
Peak area as % of total area of all glycoforms, 14,569 [2]: 4.0%
Peak area as % of total area of all glycoforms, 14,551 [2]: 4.0%
Peak area as % of total area of all glycoforms, 14,533 [2]: 1.6%
Peak area as % of total area of all glycoforms, 14,515 [2]: 0.6%
Peak area as % of total area of all glycoforms, 14,419 [2]: 8.8%
Peak area as % of total area of all glycoforms, 14,401 [2]: 0.3%
Peak area as % of total area of all glycoforms, 14,437 [2]: 21.5%
Peak area as % of total area of all glycoforms, 14,496 [2]: 0.0%
Peak area as % of total area of all glycoforms, 14,364 [2]: 2.0%
Peak area as % of total area of all glycoforms, 14,305 [2]: 56.4%
IC50 [1, 4]: > 4000 µM

NC(=O)c1cc([N+](=O)[O-])cc([N+](=O)[O-])c1 [3,5-Dinitrobenzamide]
IC50 [1, 4]: 780 µM

D,L-Epinephrine
IC50 [1]: 15 µM

Cc1cc2c(OCC(CNC(C)(C)C)OC(=O)c3ccccc3)cccc2[nH]1 (stereo not drawn) [Bopindolol]
IC50 [1, 4]: 170 µM

CC[C@@]1(O)C[C@H](O[C@H]2C[C@H](N(C)C)[C@H](O[C@H]3C[C@H](O)[C@H](O[C@H]4CCC(=O)[C@H](C)O4)[C@H](C)O3)[C@H](C)O2)c2c(cc3c(c2O)C(=O)c2c(O)cccc2C3=O)[C@H]1C(=O)OC [Aclarubicin]
IC50 [1, 4]: 2500 µM

COc1ccc(-c2coc3cc(O)cc(O)c3c2=O)cc1 [Biochanin A]
IC50 [1, 4]: 290 µM
